Assay results taken from ChEMBL document CHEMBL1201862, “PubChem BioAssay data set” (2004).
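Growth conditions: 96-well plates. Treatment: test compound, 48 hours, 5 concentrations. Analysis: linear interpolation between bracketing concentrations; unreached endpoints set to highest concentration. The concentration for 50% growth inhibition is given as GI50.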 Calls of active or inactive are those of the source. No stated cut-off is given here; in the data, active = GI50 up to about 1.1 µM and inactive = higher.

How the values were obtained:
Assay in all cases: NCI anticancer screen, dose series, 48 h
[1] = system: OVCAR-3
[2] = system: MDA-MB-435
[3] = system: M14
[4] = system: SN12C
[5] = system: A498
[6] = system: DU-145
[7] = system: KM12
[8] = system: NCI-H460
[9] = system: HCT-15
[10] = system: ACHN
[11] = system: NCI/ADR-RES
[12] = system: NCI-H23
[13] = system: SK-MEL-2
[14] = system: SNB-75
[15] = system: EKVX
[16] = system: RXF 393
[17] = system: SF-268
[18] = system: U-251
[19] = system: SR
[20] = system: K562

Structure (SMILES)	GI50 [1]	GI50 [2]	GI50 [3]	GI50 [4]	GI50 [5]	GI50 [6]	GI50 [7]	GI50 [8]	GI50 [9] [µM]	GI50 [10]	GI50 [11]	GI50 [12]	GI50 [13]	GI50 [14]	GI50 [15]	GI50 [16]	GI50 [17]	GI50 [18]	GI50 [19]	GI50 [20]
COc1cc(C2=C(c3cc(OC)c4ccccc4c3OC)C(=O)c3ccccc3C2=O)c(OC)c2ccccc12	> 100 µM (inactive)	> 100 µM (inactive)	82.4 µM (inactive)	> 100 µM (inactive)	> 100 µM (inactive)	> 100 µM (inactive)	> 100 µM (inactive)	> 100 µM (inactive)	> 100	> 100 µM (inactive)	> 100 µM (inactive)	> 100 µM (inactive)	> 100 µM (inactive)	> 100 µM (inactive)	> 100 µM (inactive)	> 100 µM (inactive)	> 100 µM (inactive)	> 100 µM (inactive)	> 100 µM (inactive)	–
CN(C)CCCNc1ccc2nnn3c4ccc(OC(=O)c5ccccc5)cc4c(=O)c1c23	11.5 µM (inactive)	6.4 µM (inactive)	13.4 µM (inactive)	5.06 µM (inactive)	8.41 µM (inactive)	8.26 µM (inactive)	4.92 µM (inactive)	0.76 µM (active)	5.36	3.05 µM (inactive)	12.5 µM (inactive)	13.4 µM (inactive)	15.9 µM (inactive)	–	4.24 µM (inactive)	4.44 µM (inactive)	10.5 µM (inactive)	11.5 µM (inactive)	0.697 µM (active)	1.81 µM (inactive)
N[C@@H](Cc1ccc2oc3cc(=O)c4ccccc4c-3nc2c1)C(=O)O	27.2 µM (inactive)	17 µM (inactive)	15.3 µM (inactive)	55.5 µM (inactive)	> 100 µM (inactive)	19.5 µM (inactive)	> 100 µM (inactive)	31.1 µM (inactive)	57.4	48.2 µM (inactive)	> 100 µM (inactive)	13.4 µM (inactive)	–	15 µM (inactive)	> 100 µM (inactive)	> 100 µM (inactive)	> 100 µM (inactive)	36.3 µM (inactive)	24.7 µM (inactive)	> 100 µM (inactive)
Fc1ccc(C2(CCCN3CCc4[nH]c5cc(F)ccc5c4C3)OCCO2)cc1	–	13.5 µM (inactive)	2.53 µM (inactive)	16.7 µM (inactive)	14.3 µM (inactive)	14.7 µM (inactive)	13.3 µM (inactive)	10.4 µM (inactive)	16.4	11.4 µM (inactive)	20.7 µM (inactive)	16.2 µM (inactive)	–	12.1 µM (inactive)	15.3 µM (inactive)	13.5 µM (inactive)	15.3 µM (inactive)	11.9 µM (inactive)	7.52 µM (inactive)	4.18 µM (inactive)
C=C(C)C1CC2(C)C(C)CC(O)CC2C(OC(=O)C=C(C)C)C1O (stereo not drawn)	–	38.1 µM (inactive)	33.7 µM (inactive)	30.9 µM (inactive)	65.5 µM (inactive)	60.5 µM (inactive)	33.7 µM (inactive)	22.8 µM (inactive)	27.3	18.6 µM (inactive)	30.5 µM (inactive)	30.3 µM (inactive)	61.5 µM (inactive)	11.6 µM (inactive)	34.8 µM (inactive)	26.9 µM (inactive)	23.7 µM (inactive)	40 µM (inactive)	17.8 µM (inactive)	32.8 µM (inactive)
O=C1c2ccccc2C(=O)N1c1nc(-c2ccc(Cl)cc2)cc(N2N=C(c3ccc(Br)cc3)CC2c2ccccc2)n1 (stereo not drawn)	0.863 µM (active)	0.745 µM (active)	3.73 µM (inactive)	2.9 µM (inactive)	19.2 µM (inactive)	3.45 µM (inactive)	9.4 µM (inactive)	4.36 µM (inactive)	1.99	3.9 µM (inactive)	1.97 µM (inactive)	5.37 µM (inactive)	3.26 µM (inactive)	–	0.792 µM (active)	9.16 µM (inactive)	2.7 µM (inactive)	1.67 µM (inactive)	0.65 µM (active)	3.08 µM (inactive)
CN1C(Cl)=NS(=O)(=O)c2ccccc21	> 100 µM (inactive)	> 100 µM (inactive)	> 100 µM (inactive)	> 100 µM (inactive)	58.2 µM (inactive)	> 100 µM (inactive)	> 100 µM (inactive)	92.7 µM (inactive)	> 100	> 100 µM (inactive)	> 100 µM (inactive)	> 100 µM (inactive)	> 100 µM (inactive)	–	> 100 µM (inactive)	> 100 µM (inactive)	> 100 µM (inactive)	> 100 µM (inactive)	18.7 µM (inactive)	> 100 µM (inactive)
COC(=O)C(Cc1ccccc1I)C1=CCC2(CC1)OCCO2 (stereo not drawn)	20.8 µM (inactive)	20 µM (inactive)	22.3 µM (inactive)	–	74.1 µM (inactive)	25 µM (inactive)	22.9 µM (inactive)	33.3 µM (inactive)	26.1	36.6 µM (inactive)	18.6 µM (inactive)	26.4 µM (inactive)	25.5 µM (inactive)	21.2 µM (inactive)	47.6 µM (inactive)	14.2 µM (inactive)	41.3 µM (inactive)	45.4 µM (inactive)	18 µM (inactive)	27.3 µM (inactive)
CCCCCCCCCCCCCC(=O)O.O=CC(O)C(O)C(OC1OC(CO)C(O)C(O)C1O)C(O)CO (stereo not drawn)	> 100 µM (inactive)	40.6 µM (inactive)	> 100 µM (inactive)	80.4 µM (inactive)	> 100 µM (inactive)	> 100 µM (inactive)	23.2 µM (inactive)	> 100 µM (inactive)	22.9	> 100 µM (inactive)	> 100 µM (inactive)	> 100 µM (inactive)	> 100 µM (inactive)	> 100 µM (inactive)	–	> 100 µM (inactive)	> 100 µM (inactive)	35 µM (inactive)	1 µM (active)	26.4 µM (inactive)
c1ccc([P+](CCCCCC[P+](c2ccccc2)(c2ccccc2)c2ccccc2)(c2ccccc2)c2ccccc2)cc1	19.8 µM (inactive)	15.2 µM (inactive)	28.6 µM (inactive)	15.3 µM (inactive)	5.04 µM (inactive)	11.9 µM (inactive)	3.85 µM (inactive)	9.38 µM (inactive)	> 100	50.8 µM (inactive)	> 100 µM (inactive)	4.71 µM (inactive)	–	5.2 µM (inactive)	54.5 µM (inactive)	11.6 µM (inactive)	3.49 µM (inactive)	0.798 µM (active)	21.1 µM (inactive)	11.7 µM (inactive)
Cc1ccn2c(CCc3nnc4cc(C)ccn34)nnc2c1	> 100 µM (inactive)	> 100 µM (inactive)	> 100 µM (inactive)	> 100 µM (inactive)	> 100 µM (inactive)	> 100 µM (inactive)	> 100 µM (inactive)	> 100 µM (inactive)	> 100	> 100 µM (inactive)	> 100 µM (inactive)	> 100 µM (inactive)	> 100 µM (inactive)	> 100 µM (inactive)	> 100 µM (inactive)	> 100 µM (inactive)	> 100 µM (inactive)	> 100 µM (inactive)	15 µM (inactive)	–
